Patent US20010034362A1, “Pyrrolidine derivatives for vision and memory disorders” (Guilford Pharmaceuticals Inc., priority 1998, published 2001)
Marks after values point to notes of the source that are not given here.

Experiments:
[1] = test system: retinal ganglion cells and optic nerve axons; test: In vivo retinal ganglion cell and optic nerve axon tests after optic nerve transection, 14 or 28 day treatment, sacrifice at 90 days; design: species or system Sprague Dawley rats; conditions: for RGC Counts: mean density ± SEM of Fluoro-gold labeled RGC in 400 μm × 400 μm gridfields; for ON Axon density: mean ± SEM of RT97 labeled axons in 200 μm × 200 μm region; for increased ON axon density: adjusted for optic nerve diameter; for ON axon Count: calculated by multiplying axonal density by ON area; for Proximal optic nerve myclin basic protein Density: ± SEM, 20X analysis of % areal coverage
Source text: Complete transection of the optic nerve 5 mm from the eyeball produces massive degeneration of retinal ganglion cells, representing loss of >87% of the normal ganglion cell population 90 days after the injury (Table 1). Few spared fluorogold pre labeled ganglion cells are present in vehicle treated cases (large-white figures) among a population of small microglia that digest the debris of the degenerating cells and take up the fluorogold label (FIG. 3A).
90 days after transection few ganglion cell axons remain within the optic nerve (FIG. 4B), representing only 5.6% of the normal population. The loss of axons reflects both the death of retinal ganglion cells and the regression or “dying back” of the axons of ˜70% of the small surviving ganglion cell population into the retina itself (Table 1).
Myelin basic protein immunchistochemistry labels fascicles (darker labeled ‘islands’) of myelinated axons in the normal optic nerve (FIG. 6A, upper left). 90 days after transection extensive degeneration of myelin is evident in vehicle treated cases, characterized by the loss of fascicular organization and the appearance of numerous large dense degenerating myelin figures (FIG. 6B, upper right).
Complete transection of the optic nerve leads to degeneration of the distal segments (axon fragments disconnected from the ganglion cell bodies), and the degeneration of their myelin sheaths.
All eyes and optic nerves stumps were removed.

[2] = Clearance (Table V comments); assay type: in vitro ADME
[3] = test system: retinal ganglion cell axons; test: Protection of retinal ganglion cell axons from degeneration following optic nerve transection (Table V); assay type: in vivo; conditions: ± SEM
Source text: Efficacy of representative compounds from different immunophilin ligand series in protecing retinal gangiou cell axons from degeneration following optic nerve transection is set forth in Table V.

[4] = test system: retinal ganglion cells, optic nerve axons and myelin; test: Retinal ischemia by raised intraocular pressure, examined 28 days after the episode; assay type: in vivo, adult rats
Source text: Retinal ganglion cells were retrogradely labeled in adult rats by bilateral injection of fluorogold in their lateral geniculate nuclei. Labeled ganglion cells in the normal rat retina appear as white profiles against the dark background (FIG. 1A). Complete retinal ischemia was produced by infusing normal saline solution into the retinal vitreous cavity of each eye until the intraocular pressure exceeded arterial blood pressure. 28 days after the ischemic episode extensive degeneration of retinal ganglion cell was evidenced by massive reduction in the density of fluorogold labeled cells (FIG. 1B).
Optic nerves from vehicle treated cases examined 28 days after a 1 hour retinal ischemic episode are characterized by a decreased density of optic nerve axons and the appearance of numerous degenerating myelin figures (bright white filled circles).

retina = test: Streptozotocin induced diabetes, retinal neovascularization and neuronal loss; assay type: in vivo
retinal ganglion cells = test: Example 17: optic nerve transection, GPI-1046 for 28 days, sacrifice at 90 days; assay type: in vivo, Sprague Dawley rats; conditions: 10 mg/kg/day s.c. for 28 days
Source text: Transection of the mammalian optic nerve results in a brief period of abortive regeneration, but the majority of axotomized neurons die and the axons from many persisting ganglion cells die back beyond the optic nerve head.

[5] = test system: streptozotocin-induced diabetic rat; test: Streptozotocin-induced diabetic sensory neuropathy, hot plate and tail flick; assay type: in vivo, Male Wistar rats; conditions: lesioned animals treated for 6 weeks at 10 mg/kg s.c.
Experimental: The procedure involved using Male Wistar rats which were given a single injection of streptozotocin (65 mg/kg i.v.). Blood glucose levels were determined weekly for the first three weeks and on the last week of the experiment. Animals were evaluated weekly for signs of sensory neuropathy using the conventional hot plate and tail flick apparatus test procedures.

aged mice = test: Morris watermaze, spatial learning and memory in aged rodents; assay type: in vivo, C57BL/6N-Nia mice; conditions: aged impaired mice, 10 mg/kg daily, retention testing after 3 weeks of dosing
Source text: The Morris watermaze is widely used for assessing spatial memory formation and retention in experimental animals. The test deoends on the animal's ability to utilize spatial visual information in order to locate a submerged escape platform in a water tank. It is important that the tank itself be as devoid of specific visual features as possible—thus, it is always circular in shape, the sides are kept smooth and in uniform dull colors, and the water is rendered opacue with nontoxic watercolour pigment or powdered milk. This is to ensure that the animal navigates only by the use of more distant visual cues, or by the use of intra-maze cues specifically provided by the experimenter. The animals' path, speed, and swim time are tracked with a ceiling camera for lacer computerized analysis. Over the course of several successive trials, spatial learning can therefore be defined as a drop of distance swum, or time elapsed, from placement in the tank until escape onto the invisible platform. The procedure involved using three-month old (young) and 18-19 month old male C57BL/6N-Nia (aged) mice which habituated to the well known and conventional Morris watermaze during a 4 trials/day, 3-4 day visible platform training phase. […] Swim Distances (cm) were analyzed in a 7×5 ANOVA including Groups and Blocks (1-5) as factors in the analysis, treating Blocks as a repeated measure.

[6] = 14 days GPI 1046, 90 days after transection
[7] = 28 days GPI 1046, 90 days after transection
[8] = 28 day treatment beginning 8 weeks after onset of streptozotocin induced diabetes

SMILES: CCC(C)(C)C(=O)C(=O)N1CCC[C@H]1C(=O)OCCCc1cccnc1 [GPI 1046, 3-(3-pyridyl) -1-propyl (2s) -1-(3,3-dimethyl-1,2-dioxopentyl) -2-pyrrolidinecarboxylate]
- RGC Counts ([1]; 14 days GPI 1046 10 mg/kg/day sc, 90 days after transection): small but not significant increase
- % RGCs Rescued [1, 6]: 5.3%
- % surviving RGCs with ON axons [1, 6]: 33.6%
- ON head area (% sham) [1, 6]: 76%
- Spared RGC population [1, 6]: 20,275
- ON Axon density [1, 6]: 569 ± 23
- increased ON axon density ([1]; 14 days GPI 1046): 1.5X
- ON axon Count ([1]; 14 days GPI 1046): 6820
- Distal optic nerve stump shrinkage ([1]; 14 days GPI 1046, cross sectional area compared to sham control): did not protect against shrinkage of the distal stump
- Distal optic nerve myclin base protein Density, loss ([1]; 14 days GPI 1046, cross sectional area multiplied by myelin density): slightly increase the density of myelin
- Proximal optic nerve myclin basic protein Density ([1]; 14 days GPI 1046): 1.6 ± 3.0 SEM % recovery
- RGC Counts ([1]; 28 days GPI 1046 10 mg/kg/day sc, 90 days after transection): 67.9 ± 5.8
- % surviving RGCs with ON axons [1, 7]: 81.4%
- ON head area (% sham) [1, 7]: 95%*
- Spared RGC population [1, 7]: 28,096*
- ON Axon density [1, 7]: significant increase in the density of large, and particularly medium and small caliber optic nerve axons
- increased ON axon density ([1]; 28 days GPI 1046): 5.0X
- ON axon Count ([1]; 28 days GPI 1046): 22,861*
- Distal optic nerve stump, less shrinkage ([1]; 28 days GPI 1046, cross sectional area compared to sham control): prevented cross sectional shrinkage
- Proximal optic nerve myclin basic protein Density ([1]; 28 days GPI 1046): 70 ± 6.3 SEM % recovery
- protection of optic nerve axons ([1]; first 14 days GPI 1046, proximal stump, 90 days after transection): 5.3%
- Clearance [2]: 63.8 µL/min
- RT97 + RGC axon density 14 days after ON transection (% ON axons rescued) [3]: 60.5% ± 3.9 SEM
- protection of retinal ganglion cells (fluorogold labeled cell density) ([4]; 10 mg/kg s.c. 1 hour prior to ischemia and 10 mg/kg/day for next four days, 28 days after ischemia): noticeable protection of a large proportion of the vulnerable ganglion cell population
- density of degenerating myelin figures ([4]; 28 days after 1 hour retinal ischemic episode): dramatically decreased
- protection of optic nerve axons from ischemic degeneration ([4]; 28 days after 1 hour retinal ischemic episode, toluidine blue staining): protected the majority of optic nerve axons from degeneration
- loss of neurons in the INL and GCL (retina; 28 day treatment beginning 8 weeks after onset of diabetes, compared to streptozotocin/vehicle controls): appeared to decrease the loss of neurons in both the INL and GCL
- neovascularization in the PR, ONL, OPL and INL (retina; [8]): reduced neovascularization
- neuronal loss in the ONL (retina; [8]): did not appear to protect against neuronal loss in the ONL
- ganglion cell population spared (perikaryal neuroprotection) (retinal ganglion cells; 90 days after transection): 25%
- preservation of axons in the proximal stump of the transected nerve (retinal ganglion cells; RT97 neurofilament immunohistochemistry): preserved the axons of virtually ali croteczed neurons
- hot plate and tail flick latency [5]: improvement in latency
- spatial memory performance (swim distance, retention testing) (aged mice): significantly enhanced spatial memory performance
